In ChEMBL document CHEMBL5257126, “Moderately lipophilic 2-(Het)aryl-6-dithioacetals, 2-phenyl-1,4-benzodioxane-6-dithioacetals and 2-phenylbenzofuran-5-dithioacetals: Synthesis and primary evaluation as potential antidiabetic AMPK-activators” (Bioorg Med Chem, 2023):

Legend:
[1] = tested on: L6; experiment: Induction of glucose uptake in rat L6 cells assessed as fold increase by measuring 2-NBDG uptake at 25 uM preincubated in high glucose medium for 48 hrs followed by compound addition and measured after 24 hrs; format: functional
[2] = tested on: L6; experiment: Induction of glucose uptake in rat L6 cells assessed as fold increase by measuring 2-NBDG uptake at 2.5 uM preincubated in high glucose medium for 48 hrs followed by compound addition and measured after 24 hrs; format: functional
[3] = tested on: L6; experiment: Induction of glucose uptake in rat L6 cells assessed as fold increase by measuring 2-NBDG uptake at 0.25 uM preincubated in high glucose medium for 48 hrs followed by compound addition and measured after 24 hrs; format: functional
[4] = molecular target: T1, Serine/threonine-protein kinase STK11 (Rattus norvegicus) (UniProt D4AE59); experiment: Activation of LKB1 in rat L6 cells assessed as fold increase in phosphorylation at Ser428 at 10 uM incubated for 24 hrs by Western blot analysis; format: cell-based
T1 sequence (whole entry): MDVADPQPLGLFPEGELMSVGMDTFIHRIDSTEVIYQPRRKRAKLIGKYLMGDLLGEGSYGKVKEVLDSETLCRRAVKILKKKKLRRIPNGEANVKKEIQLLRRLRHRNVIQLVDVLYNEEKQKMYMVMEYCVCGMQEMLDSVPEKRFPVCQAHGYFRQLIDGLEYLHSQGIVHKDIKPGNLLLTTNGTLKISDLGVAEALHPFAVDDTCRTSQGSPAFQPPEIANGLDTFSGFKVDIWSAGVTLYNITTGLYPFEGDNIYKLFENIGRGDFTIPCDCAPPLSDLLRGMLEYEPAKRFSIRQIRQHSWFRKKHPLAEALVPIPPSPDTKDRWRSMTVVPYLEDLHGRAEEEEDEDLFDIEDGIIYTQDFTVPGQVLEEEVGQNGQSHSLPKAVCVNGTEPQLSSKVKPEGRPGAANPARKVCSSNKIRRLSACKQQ

[5] = molecular target: T1, Serine/threonine-protein kinase STK11 (Rattus norvegicus); experiment: Activation of LKB1 in rat L6 cells assessed as fold increase in phosphorylation at Ser428 at 25 uM incubated for 24 hrs by Western blot analysis; format: cell-based; conditions: filed as activator

SMILES	fold change (FC) [1]	fold change (FC) [2]	fold change (FC) [3]	Activity [4]	Activity [5]
c1ccc(C2COc3cc(C4SCCCCS4)ccc3O2)cc1 (centres undefined)	1.1	1	1	–	–
c1ccc(C2CCc3cc(C4SCCCCS4)ccc3O2)cc1 (centres undefined)	–	–	–	30%	80%
c1ccc(-c2cc3cc(C4SCCCCS4)ccc3o2)cc1	1.1	1	1	–	–
OCCOCCSC(SCCOCCO)c1ccc2c(c1)CCC(c1ccccc1)O2 (centres undefined)	1.1	1.1	1	–	–
OCCSC(SCCO)c1ccc2c(c1)CCC(c1cccnc1)O2 (centres undefined)	1.9	1.7	1.4	–	–
c1coc(C2CCc3cc(C4SCCCS4)ccc3O2)c1 (centres undefined)	1.2	1	1	–	–
O=C(NCCSC(SCCNC(=O)OCc1ccccc1)c1ccc2c(c1)CCC(c1ccccc1)O2)OCc1ccccc1 (centres undefined)	1.1	1.1	0.9	–	–
OCCSC(SCCO)c1ccc2c(c1)OCC(c1ccccc1)O2 (centres undefined)	1.7	1.2	1.1	–	–
O[C@H]1CS[C@@H](c2ccc3c(c2)CCC(c2ccccc2)O3)SC1 (some centres undefined)	1	1	1.1	–	–
O[C@H]1CS[C@H](c2ccc3c(c2)CCC(c2ccccc2)O3)SC1 (some centres undefined)	1	0.9	1.1	–	–
OCCSC(SCCO)c1ccc2c(c1)CCC(c1ccccc1)O2 (centres undefined)	1.5	1	1	–	–
O=C(O)CCSC(SCCC(=O)O)c1ccc2c(c1)CCC(c1ccccc1)O2 (centres undefined)	1.2	1.1	0.9	–	–
c1ccc(C2CCc3cc(C4NCCS4)ccc3O2)cc1 (centres undefined)	1.2	0.9	1	–	–
COc1ccc(C2CCc3cc(C4SCCCCS4)ccc3O2)cc1 (centres undefined)	2.2	1.9	1.4	–	–
c1ccc(C2COc3cc(C4SCCCS4)ccc3O2)cc1 (centres undefined)	1.2	1	1	–	–
c1ccc(-c2cc3cc(C4SCCCS4)ccc3o2)cc1	1.2	1	1	–	–
COc1cccc(C2CCc3cc(C4SCCCS4)ccc3O2)c1 (centres undefined)	1.5	1	1	–	–
OCCSC(SCCO)c1ccc2c(c1)CCC(c1ccco1)O2 (centres undefined)	1.5	1	1.1	–	–
CC(C)(C)OC(=O)NCCSC(SCCNC(=O)OC(C)(C)C)c1ccc2c(c1)CCC(c1ccccc1)O2 (centres undefined)	1	1	1	–	–
c1cncc(C2CCc3cc(C4SCCCS4)ccc3O2)c1 (centres undefined)	1.3	1	1	–	–
